Molecular target: T1, CIRBP (Homo sapiens, UniProt Q14011)
T1 construct: full length (1-172), wild type; His6-protein A tag removed by TEV protease; E. coli BL21-DE3 Star; 15N-labelled
T1 sequence (Q14011 1-172): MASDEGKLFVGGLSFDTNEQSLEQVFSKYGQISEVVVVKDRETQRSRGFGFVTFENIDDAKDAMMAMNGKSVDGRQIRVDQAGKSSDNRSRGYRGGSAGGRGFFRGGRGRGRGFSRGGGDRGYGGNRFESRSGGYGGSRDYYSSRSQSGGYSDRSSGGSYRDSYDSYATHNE
Experiment: 1H-15N HSQC NMR titration
Type: binding
Settings: not given
Text: 1H-15N HSQC NMR titration on CIRBP | ATP binding to CIRBP is in the fast exchange regime with an associated KD

| SMILES | Kd [mM] |
| --- | --- |
| Nc1ncnc2c1ncn2[C@@H]1O[C@H](COP(=O)(O)OP(=O)(O)OP(=O)(O)O)[C@@H](O)[C@H]1O [ATP] | 2.9 ± 1.4 |

Molecular target: T1, CIRBP
Experiment: 1H-15N HSQC NMR chemical shift perturbation
Type: binding
Settings: 17 μM 15N-CIRBP; 10 mM ligand; 50 mM sodium phosphate, 150 mM NaCl, pH 6.5, 298 K; RRM and RG/RGG region

| SMILES | 1H-15N HSQC NMR chemical shift perturbation |
| --- | --- |
| Nc1ncnc2c1ncn2[C@@H]1O[C@H](COP(=O)(O)OP(=O)(O)O)[C@@H](O)[C@H]1O [ADP] | ADP and NAD^+ showed binding to CIRBP (Figure 2a,c) |
| Nc1ncnc2c1ncn2[C@@H]1O[C@H](COP(=O)(O)O)[C@@H](O)[C@H]1O [AMP] | the other tested nucleotides (ATP, AMP) |
| NC(=O)c1ccc[n+]([C@@H]2O[C@H](COP(=O)(O)OP(=O)(O)OC[C@H]3O[C@@H](n4cnc5c(N)ncnc54)[C@H](O)[C@@H]3O)[C@@H](O)[C@H]2O)c1 [NAD+] | ADP and NAD^+ showed binding to CIRBP (Figure 2a,c) |
| NC(=O)C1=CN([C@@H]2O[C@H](COP(=O)(O)OP(=O)(O)OC[C@H]3O[C@@H](n4cnc5c(N)ncnc54)[C@H](O)[C@@H]3O)[C@@H](O)[C@H]2O)C=CC1 [NADH] | dinucleotides (NADH, NADP^+ and NADPH) showed significant binding to CIRBP |
| NC(=O)C1=CN([C@@H]2O[C@H](COP(=O)(O)OP(=O)(O)OC[C@H]3O[C@@H](n4cnc5c(N)ncnc54)[C@H](OP(=O)(O)O)[C@@H]3O)[C@@H](O)[C@H]2O)C=CC1 [NADPH] | dinucleotides (NADH, NADP^+ and NADPH) showed significant binding to CIRBP |

Reference: paper PMC8197425, “ATP regulates RNA‐driven cold inducible RNA binding protein phase separation” (Protein Science : A Publication of the Protein Society, 2021)
